# According to patent publication US5861476A, “Peptides and compounds that bind to the IL-1 receptor” (Affymax Technologies N.V., priority 1995, dated 1999):
# Where two headings read alike, the source gives them in different places. Where a SMILES comes first, the peptide text is derived from it. Where no end group is shown, it is not given here. [ ]: non-standard residue; d: D form. Bpa = N[C@@H](Cc1ccc(C(=O)c2ccccc2)cc1)C(=O)O; Pip = O=C(O)[C@@H]1CCCCN1; Aze = O=C(O)[C@@H]1CCN1; Aib = CC(C)(N)C(=O)O
# Molecular target: T1, IL-1RtI (Homo sapiens, UniProt P14778)
# T1 construct: made in house; host or cells: recombinant host cells (one form soluble from baculovirus transformed host cells; another PIG-tailed and cleaved from the cell surface)
# T1 sequence (P14778 18-336): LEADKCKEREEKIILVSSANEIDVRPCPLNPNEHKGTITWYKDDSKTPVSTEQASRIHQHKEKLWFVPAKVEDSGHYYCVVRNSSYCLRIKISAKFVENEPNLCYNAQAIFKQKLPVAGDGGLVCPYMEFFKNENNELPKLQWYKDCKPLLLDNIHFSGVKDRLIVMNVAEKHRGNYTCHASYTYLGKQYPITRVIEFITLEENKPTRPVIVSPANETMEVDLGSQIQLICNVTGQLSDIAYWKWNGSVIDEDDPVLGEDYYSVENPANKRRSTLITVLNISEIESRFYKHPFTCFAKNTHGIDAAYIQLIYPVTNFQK
# Experiment: Inhibition of 125I-IL-1α binding to IL-1RtI (Example 3)
# Procedure: This example provides the results of experiments conducted to determine an approximate IC50 for certain peptides of the invention. IC50 as used herein refers to the concentration of a compound which will inhibit 50% of the binding between a receptor and its ligand, e.g. IL-1RtI and IL-1. Stock solutions of each peptide were prepared. The appropriate amount of the peptide was dissolved in DMSO, and then nineteen volumes of binding buffer (RPMI 1640, 1% BSA, 20 mM HEPES, pH 7.2-7.3, and 0.1% sodium azide) were added to yield a 1 mM peptide, 5% DMSO stock solution.
# One assay utilized a truncated IL-1RtI which had been immobilized on 96-well plates with an appropriate antibody, typically a non-blocking high affinity antibody. In other assays, cells expressing "full-length" IL-1RtI were used with results that yielded IC50 values about 5 to 10 fold lower than those determined using the truncated receptor. The cells were seeded onto Falcon 3072 96-well plates at about 10^5 cells per well, and the plates were incubated overnight at 37° C. in media containing serum. The following morning, the cells were checked to ensure that the cells were confluent and adhered to the bottom of the wells.
# According to either assay protocol, the plates were then washed three times with binding buffer, and then 50 μl of binding buffer and 25 μl of a peptide solution (either the stock solution or a dilution thereof; each stock was subjected to five three fold dilutions) were added to each well. Then 25 μl of binding buffer containing ^125 I-IL-1α (final concentration of 90 pM) were added to each well to begin the assay. Each assay was carried out in duplicate. The plates were then incubated for two hours at 4° C. For peptides having particularly high affinities, the assay was run in 24 well plates allowing for higher levels of ligand (possible total volume of 2.5 ml instead of 100 μl in the 96 well plate), thereby minimizing the potential for ligand depletion.
# After the two hour incubation, the wells were rinsed three times with ice cold PBS (a semi-automated cell harvesting device was used to conduct the rinse). The receptors or cells were then detached from the plates by adding 100 μl of 0.1N NaOH to each well and incubating the plates at room temperature for 20 minutes. After the 20 minute incubation, about 75 μl of the suspension was counted on a gamma counter, and the IC50 for each peptide was determined using computer assistance and the results of the gamma counting.
# [1] = inhibition of 125I-IL-1α binding to IL-1RtI, soluble peptide unless marked *
Compound,IC50 [1],IC50
DNTAWYENFLL [DNTAWYENFLL],≤ 100 µM,–
WETWYQPYALPL [WETWYQ PYALPL],≤ 100 µM,–
FIEWFQPYALPL [FIEWFQ PYALPL],≤ 100 µM,–
EWYQPYALGWAR [EWYQPYALGWAR],≤ 100 µM,–
FEWTPGYWQPYALPL [FEWTPGYWQPYALPL],≤ 0.5 µM,< 0.5 µM
C[C@@H](O)[C@H](NC(=O)[C@H](Cc1c[nH]c2ccccc12)NC(=O)[C@H](CCC(=O)O)NC(=O)[C@@H](N)Cc1ccccc1)C(=O)N1CCC[C@H]1C(=O)NC(C)(C)C(=O)N[C@@H](Cc1ccc(O)cc1)C(=O)N[C@@H](Cc1c[nH]c2ccccc12)C(=O)N[C@@H](CCC(N)=O)C(=O)N1CC[C@H]1C(=O)N[C@@H](Cc1ccc(O)cc1)C(N)=O [FEWTPAibYWQJY--NH2] (H-FEWTP[Aib]YWQ[Aze]Y-NH2),≤ 0.5 µM,–
WRDSVYWQPYSVQPESA [WRDS VYWQPYSVQ PESA],≤ 100 µM,–
"RGDYWQPYSVQS [3H9, 11, RGDYWQPYSVQS]",≤ 100 µM,–
SDIWYQPYALPL [SDIWYQ PYALPL],≤ 100 µM,–
FEWTPGYWQPY-NH2 [FEWTPGYWQPY--NH2],≤ 0.5 µM,–
RPLYWQPYSVQV [RPLYWQPYSVQV],≤ 100 µM,–
ASEWWQPYALPL [ASEWWQ PYALPL],≤ 100 µM,–
"VHVYWQPYSVQT [Peptide 3H5, VHVYWQPYSVQT]",≤ 100 µM,–
ENTYSPNWADSMYWQPYALPL [ENTYSPNWADSM YWQPYALPL],≤ 0.5 µM,–
C[C@@H](O)[C@H](NC(=O)[C@H](Cc1c[nH]c2ccccc12)NC(=O)[C@H](CCC(=O)O)NC(=O)[C@@H](N)Cc1ccccc1)C(=O)N1CCC[C@@H]1C(=O)NCC(=O)N[C@@H](Cc1ccc(O)cc1)C(=O)N[C@@H](Cc1c[nH]c2ccccc12)C(=O)N[C@@H](CCC(N)=O)C(=O)N1CC[C@H]1C(=O)N[C@@H](Cc1ccc(O)cc1)C(N)=O [FEWTpGYWQJY--NH2] (H-FEWT[dP]GYWQ[Aze]Y-NH2),≤ 0.5 µM,–
YFQPYALGL [YFQPYALGL],≤ 100 µM,–
GWWQPYARGL [GWWQPYARGL],≤ 100 µM,–
C[C@@H](O)[C@H](NC(=O)[C@H](Cc1c[nH]c2ccccc12)NC(=O)[C@H](CCC(=O)O)NC(=O)[C@@H](N)Cc1ccccc1)C(=O)N1CCC[C@H]1C(=O)N[C@H](CC(N)=O)C(=O)N[C@@H](Cc1ccc(O)cc1)C(=O)N[C@@H](Cc1ccc(O)cc1)C(=O)N[C@@H](CCC(N)=O)C(=O)N1CC[C@H]1C(=O)N[C@@H](Cc1ccc(O)cc1)C(N)=O [FEWTPnYYQJY-NH2] (H-FEWTP[dN]YYQ[Aze]Y-NH2),–,< 0.5 µM
ARFWLQPYALPL [ARFWLQ PYALPL],≤ 100 µM,–
EGWWVQPYALPL [EGWWVQ PYALPL],≤ 100 µM,–
TYTYDNTAWYERFLMSY [TYTYDNTAWYERFLMSY],–,< 0.5 µM
ESFWVQPYALPL [ESFWVQ PYALPL],> 100 µM,–
GWTQPYSQQGEV [GWTQPYSQQGEV],≤ 100 µM,–
SRIWCQPYALPL [SRIWCQ PYALPL],≤ 100 µM,–
GWEQPYARGLAG [GWEQPYARGLAG],≤ 100 µM,–

Compound,IC50 [1],IC50
PWIQPYARGFG [PWIQPYARGFG],≤ 100 µM,–
AWVQPYATPLDE [AWVQPYATPLDE],≤ 100 µM,–
HWGHVYWQPYSVQDDLG [HWGH VYWQPYSVQ DDLG],≤ 100 µM,–
CC(C)C[C@H](NC(=O)[C@@H]1CCCN1C(=O)[C@H](CC(C)C)NC(=O)[C@H](C)NC(=O)[C@H](Cc1ccc(O)cc1)NC(=O)[C@@H]1CCN1C(=O)[C@H](CCC(N)=O)NC(=O)[C@H](Cc1c[nH]c2ccccc12)NC(=O)[C@H](Cc1ccc(O)cc1)NC(=O)[C@H](Cc1ccc(O)cc1)NC(=O)[C@H](C)NC(=O)[C@H](CC(N)=O)NC(=O)[C@H](CO)NC(=O)[C@H](CCC(=O)O)NC(=O)[C@H](CCC(=O)O)NC(=O)[C@H](Cc1c[nH]c2ccccc12)NC(=O)[C@@H](NC(=O)[C@@H](N)Cc1ccccc1)[C@@H](C)O)C(=O)O [FTWEESNAYYWQJYALPL] (H-FTWEESNAYYWQ[Aze]YALPL-OH),–,< 0.5 µM
SVGEDHNFWTSEYWQPYALPL [SVGEDHNFWTSE YWQPYALPL],≤ 0.5 µM,–
RSQYYQPYALPL [RSQYYQ PYALPL],≤ 100 µM,–
CC(=O)N[C@@H](Cc1ccccc1)C(=O)N[C@@H](CCC(=O)O)C(=O)N[C@@H](Cc1c[nH]c2ccccc12)C(=O)N[C@H](C(=O)N1CCC[C@H]1C(=O)NCC(=O)N[C@@H](Cc1ccc(O)cc1)C(=O)N[C@@H](Cc1ccc(O)cc1)C(=O)N[C@@H](CCC(N)=O)C(=O)N1CC[C@H]1C(=O)N[C@@H](Cc1ccc(C(=O)c2ccccc2)cc1)C(N)=O)[C@@H](C)O [AcFEWTPGYYQJ--Bpa--NH2] (Ac-FEWTPGYYQ[Aze][Bpa]-NH2),≤ 100 µM,–
MWYQPYSSQPAE [MWYQPYSSQPAE],≤ 100 µM,–
WWQPYALPL [WWQPYALPL],≤ 100 µM,–
AHLFWQPYSVQR [AHLFWQPYSVQR],≤ 100 µM,–
C[C@@H](O)[C@H](NC(=O)[C@H](Cc1c[nH]c2ccccc12)NC(=O)[C@H](CCC(=O)O)NC(=O)[C@@H](N)Cc1ccccc1)C(=O)N1CCCC[C@H]1C(=O)NCC(=O)N[C@@H](Cc1ccc(O)cc1)C(=O)N[C@@H](Cc1c[nH]c2ccccc12)C(=O)N[C@@H](CCC(N)=O)C(=O)N1CC[C@H]1C(=O)N[C@@H](Cc1ccc(O)cc1)C(N)=O [FEWTPecGYWQJY--NH2] (H-FEWT[Pip]GYWQ[Aze]Y-NH2),≤ 0.5 µM,–
VYWQPYSVQ [VYWQPYSVQ],≤ 100 µM,–
C[C@H](NC(=O)[C@H](CC(N)=O)NC(=O)[C@H](CO)NC(=O)[C@H](CCC(=O)O)NC(=O)[C@H](CCC(=O)O)NC(=O)[C@H](Cc1c[nH]c2ccccc12)NC(=O)[C@@H](NC(=O)[C@@H](N)Cc1ccccc1)[C@@H](C)O)C(=O)N[C@@H](Cc1ccc(O)cc1)C(=O)N[C@@H](Cc1ccc(O)cc1)C(=O)N[C@@H](Cc1c[nH]c2ccccc12)C(=O)N[C@@H](CCC(N)=O)C(=O)N1CC[C@H]1C(=O)N[C@@H](Cc1ccc(O)cc1)C(N)=O [FTWEESNAYYWQJY-NH2] (H-FTWEESNAYYWQ[Aze]Y-NH2),–,< 0.5 µM
SWHSVYWQPYSVQSVPE [SWHS VYWQPYSVQ SVPE],≤ 100 µM,–
DYVWQQPYALPL [DYVWQQ PYALPL],≤ 100 µM,–
IWYQPYAMPL [IWYQPYAMPL],≤ 100 µM,–
QRIWWQPYALPL [QRIWWQ PYALPL],≤ 100 µM,–
DSYWWQPYALPL [DSYWWQ PYALPL],≤ 100 µM,–
CC(C)[C@@H](NC(=O)[C@@H]1CCCN1C(=O)[C@@H](NC(=O)[C@H](Cc1c[nH]c2ccccc12)NC(=O)[C@H](CCC(=O)O)NC(=O)[C@@H](N)Cc1ccccc1)[C@@H](C)O)C(=O)N[C@@H](Cc1ccc(O)cc1)C(=O)N[C@@H](Cc1c[nH]c2ccccc12)C(=O)N[C@@H](CCC(N)=O)C(=O)N1CC[C@H]1C(=O)N[C@@H](Cc1ccc(O)cc1)C(N)=O [FEWTPvYWQJY--NH2] (H-FEWTP[dV]YWQ[Aze]Y-NH2),≤ 0.5 µM,–
LFEQPYAKALGL [LFEQPYAKALGL],≤ 100 µM,–
C[C@H](NC(=O)[C@@H]1CCN1C(=O)[C@H](CCC(N)=O)NC(=O)[C@H](Cc1c[nH]c2ccccc12)NC(=O)[C@H](Cc1ccc(O)cc1)NC(=O)CNC(=O)[C@@H]1CCCN1C(=O)[C@@H](NC(=O)[C@H](Cc1c[nH]c2ccccc12)NC(=O)[C@H](CCC(=O)O)NC(=O)[C@@H](N)Cc1ccccc1)[C@@H](C)O)C(N)=O [FEWTPGYWQJA--NH2] (H-FEWTPGYWQ[Aze]A-NH2),≤ 100 µM,–
C[C@@H](O)[C@H](NC(=O)[C@H](Cc1c[nH]c2ccccc12)NC(=O)[C@H](CCC(=O)O)NC(=O)[C@@H](N)Cc1ccccc1)C(=O)N1CC[C@H]1C(=O)NCC(=O)N[C@@H](Cc1ccc(O)cc1)C(=O)N[C@@H](Cc1c[nH]c2ccccc12)C(=O)N[C@@H](CCC(N)=O)C(=O)N1CC[C@H]1C(=O)N[C@@H](Cc1ccc(O)cc1)C(N)=O [FEWTJGYWQJY--NH2] (H-FEWT[Aze]GYWQ[Aze]Y-NH2),≤ 0.5 µM,–
YYQPYALPL [YYQPYALPL],≤ 100 µM,–
TIIWEQPYALPL [TIIWEQ PYALPL],≤ 100 µM,–
CC(C)[C@H](NC(=O)[C@H](Cc1c[nH]c2ccccc12)NC(=O)[C@H](CCC(=O)O)NC(=O)[C@@H](N)Cc1ccccc1)C(=O)N1CCC[C@H]1C(=O)NCC(=O)N[C@@H](Cc1ccc(O)cc1)C(=O)N[C@@H](Cc1ccc(O)cc1)C(=O)N[C@@H](CCC(N)=O)C(=O)N1CC[C@H]1C(=O)N[C@@H](Cc1ccc(O)cc1)C(N)=O [FEWVPGYYQJY--NH2] (H-FEWVPGYYQ[Aze]Y-NH2),≤ 0.5 µM,–
